From US20200352931A1, “OXALAMIDES AS MODULATORS OF INDOLEAMINE 2,3-DIOXYGENASE” (PHENEX DISCOVERY VERWALTUNGS-GMBH, priority 2017, published 2020) come the findings set out here.

This assay deals with T1, Indoleamine 2,3-Dioxygenase (IDO1) in SKOV-3 cells (Homo sapiens, UniProt P14902).
T1 construct: endogenous in cells; host or cells: SKOV-3 (ATCC HTB-77), stimulated with 50 ng/ml interferon gamma
T1 sequence (P14902 whole entry): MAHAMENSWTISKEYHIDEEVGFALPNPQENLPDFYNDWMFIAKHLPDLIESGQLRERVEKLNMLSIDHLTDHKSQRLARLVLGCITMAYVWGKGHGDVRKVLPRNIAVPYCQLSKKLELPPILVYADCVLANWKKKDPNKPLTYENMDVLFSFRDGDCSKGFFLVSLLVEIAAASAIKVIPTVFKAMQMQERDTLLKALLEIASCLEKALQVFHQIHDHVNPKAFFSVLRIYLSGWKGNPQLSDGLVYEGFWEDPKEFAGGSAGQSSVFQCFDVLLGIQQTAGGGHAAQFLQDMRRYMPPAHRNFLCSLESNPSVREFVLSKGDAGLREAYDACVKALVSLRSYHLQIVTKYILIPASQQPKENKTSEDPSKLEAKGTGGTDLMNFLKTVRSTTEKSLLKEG
Description: SKOV-3 cellular indoleamine 2,3-dioxygenase assay. The following applies: 50 ng/ml Interferon gamma, 100 μM L-Tryptophan, 24 hours, N-Formylkynurenin fluorescence, read-out: cell based activity (IC50). How it is done: SKOV-3 Cellular Indoleamine 2,3-Dioxygenase Assay
SKOV-3 cells were obtained from the American Type Culture Collection (ATCC® HTB-77™) and maintained in McCoy's medium (Pan Biotech) supplemented with 10% fetal bovine serum and 1% Penicilin/Streptomycin. Cells were kept at 37° C. in a humidified incubator with 5% CO2. For assay preparation, cells were seeded at a density of 2*10^5/m into black clear bottom 96 well plates in 100 μl medium/well supplemented with 50 ng/ml Interferon gamma (eBioscience, Thermo Fisher Scientific). After cells fully adhered to the plate, dilution series of compounds were added in medium containing additional L-Tryptophan to a final L-Tryptophan concentration of 100 μM. The cells were incubated for 24 hours. Detection of produced N-Formylkynurenin was performed by addition of 3-Methylpiperidine to a final concentration of 200 mM. The plates were sealed and heated to 65° C. for 20 minutes in a water bath. After cooling the fluorescence of each well was recorded with a Victor™ X4 (PerkinElmer) plate reader at an emission wavelength of 535 nm and excitation at 405 nm (Tomek et al.; Anal Bioanal Chem (2013) 405:2515-2524., Tomek et al.; Biochim Biophys Acta. 2015 September; 1850(9):1772-80).
Regarding `O=C(Nc1ccc(Cl)cc1)C(=O)N1CC[C@H](c2ccnc3ccc(F)cc23)[C@H](O)C1` (single isomer, unassigned) [10/1a], the IC50 was in the range of 100 to 1000 nM.
To `O=C(Nc1ccc(Cl)cc1)C(=O)N1CC[C@@H](c2ccnc3ccc(F)cc23)[C@@H](O)C1` (single isomer, unassigned) [10/1b] belongs above 1000 nM; to `CO[C@@H]1CN(C(=O)C(=O)Nc2ccc(Cl)cc2)CC[C@H]1c1ccnc2ccc(F)cc12` (single isomer, unassigned) [10/2a], below 100 nM.
To `CO[C@H]1CN(C(=O)C(=O)Nc2ccc(Cl)cc2)CC[C@@H]1c1ccnc2ccc(F)cc12` (single isomer, unassigned) [10/2b] belongs below 100 nM; to `O=C(Nc1ccc(Cl)cc1)C(=O)N1CC[C@@H](c2ccnc3ccc(F)cc23)[C@H](O)C1` (single isomer, unassigned) [Example 10a, trans-N-(4-Chlorophenyl)-2-(4-(6-fluoroquinolin-4-yl)-3-hydroxypiperidin-1-yl)-2-oxoacetamide], below 100 nM.
The result for `O=C(Nc1ccc(Cl)cc1)C(=O)N1CC[C@@H](c2ccnc3ccc(F)cc23)[C@H](O)C1` (single isomer, unassigned) [Example 10b, trans-N-(4-Chlorophenyl)-2-(4-(6-fluoroquinolin-4-yl)-3-hydroxypiperidin-1-yl)-2-oxoacetamide] reads below 100 nM; that for `O=C(Nc1ccc(Cl)cc1)C(=O)N1CCC(c2ccccc2)CC1` [1/1], below 100 nM.
Regarding `O=C(Nc1ccc(Cl)cc1F)C(=O)N1CCC(c2ccnc3ccccc23)CC1` [1/2], the IC50 is below 100 nM.
To `O=C(Nc1ccc(Cl)cc1)C(=O)N1CCC(c2ccnc3ccccc23)CC1` [1/3] belongs below 100 nM.
The result for `O=C(Nc1ccc(Cl)cc1F)C(=O)N1CCC(c2cc(C(F)(F)F)nc3ccccc23)CC1` [1/4] reads 100 to 1000 nM.
The result for `O=C(Nc1ccc(Cl)cc1F)C(=O)N1CCC(c2ccnc3ccnn23)CC1` [1/5] reads 100 to 1000 nM; that for `O=C(Nc1ccc(Cl)cc1F)C(=O)N1CCC(c2ccnc3ccc(F)cc23)CC1` [1/6], below 100 nM.
In the case of `O=C(Nc1ccc(Cl)cc1F)C(=O)N1CCC(c2ccccc2)C1` (stereo not shown) [1/7], the IC50 was above 1000 nM.
On to `O=C(Nc1ccc(Cl)cn1)C(=O)N1CCCC(c2ccnc3ccccc23)CC1` (stereo not shown) [1/8], for which the IC50 is below 100 nM.
To `O=C(Nc1ccc(Cl)cn1)C(=O)N1CCC(O)(c2ccnc3ccccc23)CC1` [1/9] belongs above 1000 nM.
For `O=C(Nc1ccc(Cl)cn1)C(=O)N1C2CCC1CC(c1ccnc3ccccc13)C2` (stereo not shown) [1/10], the 50% inhibitory concentration (IC50) is 100 to 1000 nM.
To `CC1(C)CC(c2ccnc3ccccc23)CCN1C(=O)C(=O)Nc1ccc(Cl)cn1` (stereo not shown) [1/11] belongs below 100 nM; to `O=C(Nc1ccc(Cl)cc1F)C(=O)N1CCC=C(c2ccnc3ccc(F)cc23)CC1` [1/12], below 100 nM; to `N#Cc1ccc(NC(=O)C(=O)N2CCC(c3ccnc4ccc(F)cc34)CC2)cc1` [1/14], below 100 nM.
The result for `O=C(Nc1cccc(C(F)(F)F)c1)C(=O)N1CCC(c2ccnc3ccc(F)cc23)CC1` [1/15] reads 100 to 1000 nM; that for `O=C(Nc1ccc(F)c(Cl)c1)C(=O)N1CCC(c2ccccc2)CC1` [1/16], above 1000 nM.
The result for `O=C(Nc1ccc(C(F)(F)F)cc1F)C(=O)N1CCC(c2ccnc3ccc(F)cc23)CC1` [1/17] reads below 100 nM; that for `O=C(Nc1ccc(Cl)c(F)c1)C(=O)N1CCC(c2ccnc3ccc(F)cc23)CC1` [1/18], below 100 nM; that for `O=C(Nc1cc(F)c(Cl)cc1F)C(=O)N1CCC(c2ccnc3ccc(F)cc23)CC1` [1/19], below 100 nM.
`O=C(Nc1ccc(C(F)(F)F)c(Cl)c1)C(=O)N1CCC(c2ccnc3ccc(F)cc23)CC1` [1/20]: the IC50 is above 1000 nM.
To `O=C(Nc1ccc(C(F)(F)F)c(F)c1)C(=O)N1CCC(c2ccnc3ccc(F)cc23)CC1` [1/21] belongs 100 to 1000 nM.
The result for `O=C(Nc1ccc(C(F)F)cc1)C(=O)N1CCC(c2ccnc3ccc(F)cc23)CC1` [1/22] reads below 100 nM; that for `N#Cc1ccc(NC(=O)C(=O)N2CCC(c3ccnc4ccc(F)cc34)CC2)c(F)c1` [1/23], below 100 nM; that for `Cc1ccc(NC(=O)C(=O)N2CCC(c3ccnc4ccc(F)cc34)CC2)c(F)c1` [1/24], below 100 nM.
To `O=C(Nc1ccc(C(F)F)cc1F)C(=O)N1CCC(c2ccnc3ccc(F)cc23)CC1` [1/25] belongs below 100 nM; to `O=C(Nc1ccc(Br)cc1F)C(=O)N1CCC(c2ccnc3ccc(F)cc23)CC1` [1/26], below 100 nM.
Turning to `O=C(Nc1ccc(Br)cc1)C(=O)N1CCC(c2ccnc3ccc(F)cc23)CC1` [1/27], the IC50 was below 100 nM.
Consider `O=C(Nc1ccc(F)cc1)C(=O)N1CCC(c2ccnc3ccc(F)cc23)CC1` [1/28], for which the IC50 was below 100 nM.
For `O=C(Nc1ncc(Cl)cc1F)C(=O)N1CCC(c2ccnc3ccc(F)cc23)CC1` [1/29], the IC50 was below 100 nM.
`O=C(Nc1ccc(Cl)cc1)C(=O)N1CCC(c2ccnc3c(F)cc(F)cc23)CC1` [1/30]: the IC50 is below 100 nM.
As to `O=C(Nc1ccc(Cl)cc1)C(=O)N1CCC(c2ccnc3cc(F)ccc23)CC1` [1/31], the IC50 is below 100 nM.
To `Cc1cc(Cl)ccc1NC(=O)C(=O)N1CCC(c2ccnc3ccc(F)cc23)CC1` [1/32] belongs 100 to 1000 nM; to `O=C(Nc1ccc(Cl)cn1)C(=O)N1CCC(c2cc(OC(F)F)nc3ccccc23)CC1` [1/33], above 1000 nM; to `COc1cc(C2CCN(C(=O)C(=O)Nc3ccc(Cl)cn3)CC2)c2ccccc2n1` [1/34], above 1000 nM.
To `O=C(Nc1ccc(Cl)cn1)C(=O)N1CCC(F)(c2ccnc3ccccc23)CC1` [1/35] belongs 100 to 1000 nM; to `O=C(Nc1ccc(CC(F)(F)F)cc1)C(=O)N1CCC(c2ccnc3ccc(F)cc23)CC1` [1/36], 100 to 1000 nM; to `O=C(Nc1ccc(OC(F)(F)F)cc1)C(=O)N1CCC(c2ccnc3ccc(F)cc23)CC1` [1/37], below 100 nM.
The result for `O=C(Nc1ccc(SC(F)(F)F)cc1)C(=O)N1CCC(c2ccnc3ccc(F)cc23)CC1` [1/38] reads below 100 nM; that for `O=C(Nc1ccc(OC(F)F)cc1)C(=O)N1CCC(c2ccnc3ccc(F)cc23)CC1` [1/39], below 100 nM.
Regarding `O=C(Nc1ccc(OC(F)F)cc1F)C(=O)N1CCC(c2ccnc3ccc(F)cc23)CC1` [1/40], the IC50 was below 100 nM.
The result for `O=C(Nc1ccc(OCC(F)(F)F)cc1)C(=O)N1CCC(c2ccnc3ccc(F)cc23)CC1` [1/41] reads 100 to 1000 nM; that for `CC(C)(O)c1ccc2nccc(C3CCN(C(=O)C(=O)Nc4ccc(Cl)cc4)CC3)c2c1` [1/42], above 1000 nM; that for `NC(=O)c1ccc2nccc(C3CCN(C(=O)C(=O)Nc4ccc(Cl)cc4)CC3)c2c1` [1/43], above 1000 nM.
Turning to `N#Cc1ccc2nccc(C3CCN(C(=O)C(=O)Nc4ccc(Cl)cc4)CC3)c2c1` [1/44], the IC50 was 100 to 1000 nM.
To `CC1(C)CN(C(=O)C(=O)Nc2ccc(Cl)cc2)CCC1c1ccnc2ccc(F)cc12` (stereo not shown) [1/45] belongs below 100 nM; to `O=C(Nc1ccc(Cl)cc1)C(=O)N1CCC(c2ccnc3ccc(F)cc23)C(F)(F)C1` (stereo not shown) [1/46], below 100 nM.
The result for `O=C(Nc1ccc(Cl)cc1)C(=O)N1CCC(c2ccnc3ccc(Cl)cc23)CC1` [1/47] reads below 100 nM.
To `O=C(Nc1ccc(Cl)cc1)C(=O)N1CCC(c2ccnc3cc(Cl)ccc23)CC1` [1/48] belongs below 100 nM; to `O=C(NCc1ccc(Cl)cc1)C(=O)N1CCC(c2ccnc3ccc(F)cc23)CC1` [2/1], above 1000 nM; to `O=C(NCc1ccc(Cl)o1)C(=O)N1CCC(c2ccnc3ccc(F)cc23)CC1` [2/2], above 1000 nM.
As for `CN(C(=O)C(=O)N1CCC(c2ccnc3ccc(F)cc23)CC1)c1ccc(Cl)cn1` [2/3], the IC50 was above 1000 nM.
Regarding `O=C(Nc1ccc(Cl)cn1)C(=O)N1CCC(c2ccnc(C(F)(F)F)c2Cl)CC1` [2/4], the IC50 fell in the range of 100 to 1000 nM.
In the case of `O=C(Nc1ccc(Cl)cn1)C(=O)N1CCC(c2cccc(Cl)c2Cl)CC1` [2/5], the IC50 lay within 100 to 1000 nM.
To `N#Cc1ccc(C2CCN(C(=O)C(=O)Nc3ccc(Cl)cn3)CC2)c2ccccc12` [2/6] belongs 100 to 1000 nM; to `O=C(N[C@@H]1CCc2ccccc2C1)C(=O)N1CCC(c2ccnc3ccc(F)cc23)CC1` [5/1], above 1000 nM.
To `O=C(Nc1ccc(C(F)(F)F)cn1)C(=O)N1CCC(c2ccnc3ccc(F)cc23)CC1` [5/2] belongs 100 to 1000 nM; to `Cc1nc(NC(=O)C(=O)N2CCC(c3ccnc4ccc(F)cc34)CC2)ccc1Cl` [5/3], 100 to 1000 nM.
Consider `O=C(Nc1ccc(-c2cnccn2)cn1)C(=O)N1CCC(c2ccnc3ccc(F)cc23)CC1` [5/4], for which the IC50 was 100 to 1000 nM.
To `O=C(Nc1ccc(-c2cncnc2)cn1)C(=O)N1CCC(c2ccnc3ccc(F)cc23)CC1` [5/5] belongs above 1000 nM; to `Cc1nc(NC(=O)C(=O)N2CCC(c3ccnc4ccc(F)cc34)CC2)ccc1-c1cnn(C)c1` [5/6], above 1000 nM; to `O=C(NC1Cc2ccccc2C1)C(=O)N1CCC(c2ccnc3ccc(F)cc23)CC1` [5/7], 100 to 1000 nM.
Turning to `NS(=O)(=O)c1ccc(NC(=O)C(=O)N2CCC(c3ccnc4ccc(F)cc34)CC2)cc1` [5/8], the IC50 is above 1000 nM.

One may read the IC50 as the concentration at which inhibition is half-maximal.
